Source: patent publication US20240140970A1, “A […], AND PREPARATION METHOD AND USE THEREOF” (ASCENTAWITS PHARMACEUTICALS, LTD., priority 2021, published 2024)
“And” between values parts separate entries of the source, which are not always exact repeats. Identical values can stand only once.

Columns and labels:
[1] = Stability of aqueous solution of AST-2660-D8-sodium salt by 31P-NMR with HMPA as internal standard; format: physicochemical
Protocol: This example is to study the stability of the sample solution by detecting the content of the aqueous solution of AST-2660-D8-sodium salt: ^31P-NMR was used for detection, and the content of the aqueous solution of AST-2660-D8-sodium salt was characterized by comparing the area ratio of ^31peak of HMPA as an internal standard to that of ^31P peak of AST-2660-D8 sodium salt within 48 hours, thereby determining whether the mass of the sample solution was reduced as a result of degradation.
^31P-NMR of the samples was run on an NMR instrument.
HMPA (21.8 mg, 0.1217 mmol) was dissolved in water (2.20 mL), wherein the total mass was […], and the concentration of HMPA was 5.72×10^−5 mmol/mg. A solution of AST-2660-D8-sodium salt (588 mg, about 0.5 mL) and a solution of HMPA (293 mg, 1.676×10^−2 mmol) were mixed together as samples for 31 P-NMR analysis under −20° C. storage conditions at different times. The ratio of integrated peak area of the nuclear magnetic peak (about 29.874 ppm) for the corresponding HMPA to that of the nuclear magnetic peak (about 24.491 ppm) for AST-2660-D8-sodium salt in the nuclear magnetic spectrum was calculated, and the integrated peak of the nuclear magnetic peak for HMPA was set as 1.
According to the same operation, a sample with another concentration was formulated for detection, and ^31P-NMR analysis was performed under −78° C. storage conditions at different times. […]

[2] = Stability of AST-2660 and AST-2660-D8 methanol stock/working solutions (LC-MS/MS peak area, stored vs fresh solution); format: physicochemical
Protocol: The relevant parameters of the LC-MS/MS experimental method are provided.
AST-2660 (prepared by referring to Example 1 and selecting non-deuterated raw materials) standard stock solution (methanol solution with a concentration of 1.0 mg/ml): an appropriate amount of AST-2660 was taken, added with an appropriate amount of methanol, diluted and mixed thoroughly to obtain 1.0 mg/ml of solution.
A 100 μL standard stock solution of AST-2660 was taken, added with 9900 μL of methanol, diluted and mixed thoroughly to obtain 10.0 μg/ml of calibration standard working solution.
[…] A 20 μL of internal standard stock solution of AST-2660-D8 was taken, added with 9980 μL methanol, diluted and mixed thoroughly to obtain 100 ng/ml of internal standard working solution.
It can be seen from Table 10 that the accuracy of the stability of the AST-2660 working solution and the internal standard AST-2660-D8 working solution was within ±8.1%, and the precision was less than 5.5%. Stability analysis criteria: the difference between the storage stable solution and the freshly prepared solution must be within ±10.0%, and the CV of each replicate experiment must not be greater than 10.0%. Therefore, both AST-2660 and AST-2660-D8 (internal standard) working solutions had good stability and met the requirements under various storage conditions.

[3] = 100 ng/ml methanol solution, fresh stock solution, t = 0
[4] = 100 ng/ml methanol solution, working solution stored at −70° C., t = 26 days
[5] = 1 mg/ml methanol solution, fresh stock solution, t = 0
[6] = 1 mg/ml methanol solution, stock solution stored at −70° C., t = 26 days

Compound: [2H]C1([2H])N(P(=O)([O-])N2C([2H])([2H])C2([2H])[2H])C1([2H])[2H].[Na+] [AST-2660-D8 sodium salt]
- concentration of AST-2660-D8 sodium salt ([1]; aqueous solution after storage at −20° C. for 6 months): 1370 µg/mL
- concentration of AST-2660-D8 sodium salt ([1]; aqueous solution after storage at −78° C. for 6 months): 1710 µg/mL
- decrease of concentration ([1]; aqueous solution, 6 months of storage at −20° C.): 27.5%
- decrease of concentration ([1]; aqueous solution, 6 months of storage at −78° C.): 9.5%
- concentration of AST-2660-D8 sodium salt ([1]; aqueous solution, day 0): 1890 µg/mL
- stability of solution (in words) ([1]; stored at −20 to −78° C. for 48 hours (2 days)): stable
- RE (% difference, peak area stock vs fresh solution) ([2]; 100 ng/ml AST-2660-D8 methanol working solution, 26 days at −70° C.): RE: 0.9%
- Peak area (AST-2660-D8), Mean value [2, 3]: 3282130
- Peak area (AST-2660-D8), single replicates [2, 3]: 3253860 and 3323720 and 3204960 and 3285390 and 3314390 and 3310460
- Deviation % over fresh stock solution [2, 4]: 0.9%
- Peak area (AST-2660-D8), Mean value [2, 4]: 3311013
- Peak area (AST-2660-D8), single replicates [2, 4]: 3289570 and 3332520 and 3294750 and 3307750 and 3306110 and 3335380
- Peak area (AST-2660-D8), Mean value [2, 5]: 548278.5
- Peak area (AST-2660-D8), single replicates [2, 5]: 574450 and 589227 and 535059 and 530296 and 537317 and 523322
- Deviation % over fresh stock solution [2, 6]: −2.0%
- Peak area (AST-2660-D8), Mean value [2, 6]: 537342.5
- Peak area (AST-2660-D8), single replicates [2, 6]: 539154 and 532283 and 520321 and 550350 and 532469 and 549478
- stability of methanol solution (in words) ([2]; stored for 26 days at −70° C.): strong stability
